Assay results published in ChEMBL document CHEMBL5291721, “A preclinical secondary pharmacology resource illuminates target-adverse drug reaction associations of marketed drugs” (Nat Commun, 2023).

Legend:
[1] = target: T1, Alpha-1A adrenergic receptor (Homo sapiens, UniProt P35348); format: functional, cell-based
T1 sequence (P35348 whole entry): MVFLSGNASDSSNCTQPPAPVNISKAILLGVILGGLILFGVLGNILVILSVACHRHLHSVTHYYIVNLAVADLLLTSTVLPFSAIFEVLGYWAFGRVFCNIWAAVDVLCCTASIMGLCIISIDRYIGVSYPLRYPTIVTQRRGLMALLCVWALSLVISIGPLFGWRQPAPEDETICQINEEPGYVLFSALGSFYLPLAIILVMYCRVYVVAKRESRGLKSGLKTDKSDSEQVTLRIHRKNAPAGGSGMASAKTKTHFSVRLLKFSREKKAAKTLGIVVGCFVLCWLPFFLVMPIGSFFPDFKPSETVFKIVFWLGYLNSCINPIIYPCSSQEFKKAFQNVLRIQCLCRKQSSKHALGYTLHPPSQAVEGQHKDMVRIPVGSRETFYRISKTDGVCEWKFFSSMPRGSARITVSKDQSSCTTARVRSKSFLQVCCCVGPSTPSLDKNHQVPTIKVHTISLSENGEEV

[2] = target: T2, Gastrin/cholecystokinin type B receptor (Homo sapiens, UniProt P32239)
T2 sequence (P32239 whole entry): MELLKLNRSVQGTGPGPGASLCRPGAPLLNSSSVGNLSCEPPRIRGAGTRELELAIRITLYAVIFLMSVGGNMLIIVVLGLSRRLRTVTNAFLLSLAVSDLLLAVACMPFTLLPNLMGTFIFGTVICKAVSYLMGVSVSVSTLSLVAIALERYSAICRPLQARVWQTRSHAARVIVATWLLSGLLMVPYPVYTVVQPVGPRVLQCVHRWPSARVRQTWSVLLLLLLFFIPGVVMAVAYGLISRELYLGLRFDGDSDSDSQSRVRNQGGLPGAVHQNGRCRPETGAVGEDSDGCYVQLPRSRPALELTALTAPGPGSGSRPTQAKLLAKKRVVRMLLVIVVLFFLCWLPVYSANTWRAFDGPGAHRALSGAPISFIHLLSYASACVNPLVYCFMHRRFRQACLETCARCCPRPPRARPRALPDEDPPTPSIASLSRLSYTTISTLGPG

[3] = target: 5-hydroxytryptamine receptor 2A (Homo sapiens, UniProt P28223); format: functional, cell-based
Progesterone receptor = target: T3, Progesterone receptor (Homo sapiens, UniProt P06401); format: functional
T3 sequence (P06401 whole entry): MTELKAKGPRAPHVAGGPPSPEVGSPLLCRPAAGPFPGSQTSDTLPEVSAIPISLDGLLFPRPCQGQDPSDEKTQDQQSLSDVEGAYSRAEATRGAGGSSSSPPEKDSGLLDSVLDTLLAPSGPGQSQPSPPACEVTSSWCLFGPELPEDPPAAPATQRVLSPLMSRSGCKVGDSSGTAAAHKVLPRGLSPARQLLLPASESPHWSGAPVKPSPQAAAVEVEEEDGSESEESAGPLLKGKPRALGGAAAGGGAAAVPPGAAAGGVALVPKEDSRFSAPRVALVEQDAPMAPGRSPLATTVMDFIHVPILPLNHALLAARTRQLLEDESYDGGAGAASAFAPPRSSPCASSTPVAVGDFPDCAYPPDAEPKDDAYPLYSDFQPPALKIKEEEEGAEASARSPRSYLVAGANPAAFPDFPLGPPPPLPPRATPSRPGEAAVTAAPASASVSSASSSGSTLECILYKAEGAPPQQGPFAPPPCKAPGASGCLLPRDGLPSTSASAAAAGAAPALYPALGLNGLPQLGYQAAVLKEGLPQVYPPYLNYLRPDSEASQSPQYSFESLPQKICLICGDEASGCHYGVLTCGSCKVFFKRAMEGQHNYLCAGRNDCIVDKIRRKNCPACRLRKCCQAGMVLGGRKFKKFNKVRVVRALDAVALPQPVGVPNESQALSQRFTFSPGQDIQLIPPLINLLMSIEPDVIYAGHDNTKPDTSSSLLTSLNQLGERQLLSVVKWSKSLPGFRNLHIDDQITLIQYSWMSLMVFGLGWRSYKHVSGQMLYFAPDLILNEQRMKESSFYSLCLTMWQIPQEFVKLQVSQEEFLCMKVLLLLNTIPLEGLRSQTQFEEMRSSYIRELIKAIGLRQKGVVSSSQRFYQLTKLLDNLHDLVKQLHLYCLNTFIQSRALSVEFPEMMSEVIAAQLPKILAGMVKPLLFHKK

[4] = target: T4, Prostaglandin G/H synthase 1 (Rattus norvegicus, UniProt Q63921); format: functional
T4 sequence (Q63921 whole entry): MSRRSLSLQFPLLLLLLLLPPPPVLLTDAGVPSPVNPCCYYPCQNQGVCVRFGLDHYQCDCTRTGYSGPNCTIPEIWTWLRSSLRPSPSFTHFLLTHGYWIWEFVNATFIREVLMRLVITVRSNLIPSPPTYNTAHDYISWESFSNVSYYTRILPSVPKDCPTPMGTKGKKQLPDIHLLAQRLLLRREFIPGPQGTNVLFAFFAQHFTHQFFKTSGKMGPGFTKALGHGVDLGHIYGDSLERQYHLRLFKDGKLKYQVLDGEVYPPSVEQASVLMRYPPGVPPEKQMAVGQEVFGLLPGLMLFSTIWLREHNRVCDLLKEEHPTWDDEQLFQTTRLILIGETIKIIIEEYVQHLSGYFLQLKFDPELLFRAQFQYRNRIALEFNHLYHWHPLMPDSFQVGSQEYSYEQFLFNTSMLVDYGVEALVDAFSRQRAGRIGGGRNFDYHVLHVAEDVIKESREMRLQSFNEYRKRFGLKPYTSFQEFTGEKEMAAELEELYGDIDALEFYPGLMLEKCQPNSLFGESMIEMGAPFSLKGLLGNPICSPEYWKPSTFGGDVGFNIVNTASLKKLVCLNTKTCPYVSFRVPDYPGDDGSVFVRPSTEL

Histamine H3 receptor = Histamine H3 receptor (Homo sapiens, UniProt Q9Y5N1)
Also: assay procedure not described here.

Sequence of 5-hydroxytryptamine receptor 2A (P28223 whole entry): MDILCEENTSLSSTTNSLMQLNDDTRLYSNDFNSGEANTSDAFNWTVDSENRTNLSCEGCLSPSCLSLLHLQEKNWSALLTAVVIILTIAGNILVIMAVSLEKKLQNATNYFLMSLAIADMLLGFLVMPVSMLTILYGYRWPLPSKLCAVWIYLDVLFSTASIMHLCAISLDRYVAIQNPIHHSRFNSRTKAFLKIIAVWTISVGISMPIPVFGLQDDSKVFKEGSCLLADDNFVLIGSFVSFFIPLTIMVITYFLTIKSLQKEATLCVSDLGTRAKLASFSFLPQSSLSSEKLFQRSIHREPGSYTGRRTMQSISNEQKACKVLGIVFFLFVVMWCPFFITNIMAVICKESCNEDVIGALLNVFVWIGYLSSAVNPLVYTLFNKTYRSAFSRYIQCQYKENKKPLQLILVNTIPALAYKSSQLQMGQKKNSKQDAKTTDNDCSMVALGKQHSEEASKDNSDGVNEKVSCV
Sequence of Histamine H3 receptor (Q9Y5N1 whole entry): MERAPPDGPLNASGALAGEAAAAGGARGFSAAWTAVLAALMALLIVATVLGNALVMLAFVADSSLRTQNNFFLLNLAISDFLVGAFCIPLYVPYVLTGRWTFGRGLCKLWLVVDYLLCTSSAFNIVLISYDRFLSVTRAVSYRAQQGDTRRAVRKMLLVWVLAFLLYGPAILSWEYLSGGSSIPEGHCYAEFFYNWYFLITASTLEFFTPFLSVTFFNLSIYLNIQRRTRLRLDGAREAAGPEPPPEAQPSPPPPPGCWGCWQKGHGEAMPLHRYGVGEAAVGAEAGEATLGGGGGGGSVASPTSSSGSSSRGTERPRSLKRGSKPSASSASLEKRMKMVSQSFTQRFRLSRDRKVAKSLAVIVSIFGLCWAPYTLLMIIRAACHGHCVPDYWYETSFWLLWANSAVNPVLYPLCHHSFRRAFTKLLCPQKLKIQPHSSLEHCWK

SMILES	AC50 [1] [µM]	AC50 [2] [µM]	AC50 [3] [µM]	AC50 (Progesterone receptor) [µM]	AC50 [4] [µM]	AC50 (Histamine H3 receptor) [µM]
O=C(C[S+]([O-])C(c1ccccc1)c1ccccc1)NO (centres undefined)	> 30	> 30	> 30	> 30	> 30	> 30
C=C1CC[C@@]2(O)[C@H]3Cc4ccc(O)c5c4[C@@]2(CCN3CC2CC2)[C@H]1O5	> 30	> 30	> 30	> 30	> 30	> 30
Nc1ncnc2c1ncn2[C@@H]1O[C@H](COP(=O)(O)O)[C@@H](O)[C@H]1O [ADENOSINE PHOSPHATE]	> 30	> 30	> 30	> 30	> 30	> 30
CCCC(CCC)C(=O)O[C@H]1C[C@H]2CC[C@@H](C1)[N+]2(C)C [ANISOTROPINE]	> 30	> 30	> 30	> 30	> 30	> 30
CN1CCc2cccc3c2[C@H]1Cc1ccc(O)c(O)c1-3 [APOMORPHINE]	0.32	23.4	1.79		20.4	> 10
NC(CO)C(=O)NNCc1ccc(O)c(O)c1O (centres undefined) [BENSERAZIDE]	> 30	> 30	> 30		> 30	> 10
CCC(C(=O)O)c1ccc(CC(C)C)cc1 (centres undefined) [BUTIBUFEN]	> 30	> 30	> 30	> 30		> 30
CN(C)C(=O)OC1N=C(c2ccccc2)c2cc(Cl)ccc2N(C)C1=O (centres undefined) [CAMAZEPAM]	> 30	> 30	> 30		> 30	> 10
CCCCCOC(=O)Nc1nc(=O)n([C@@H]2O[C@H](C)[C@@H](O)[C@H]2O)cc1F [CAPECITABINE]	> 30	> 30	> 30	> 30	> 30	> 30
CCOC(=O)[C@H](CCc1ccccc1)N[C@H]1CCCN2CCC[C@@H](C(=O)O)N2C1=O [CILAZAPRIL]	> 30	> 30	> 30	> 30	> 30	> 30
CCOc1cc(N)c([N+](=O)[O-])cc1C(=O)NC1CCN(CC2CC=CCC2)CC1 (centres undefined) [CINITAPRIDE]	> 30	> 30	0.07		> 30	5.9
CN1C(=O)CC(=O)N(c2ccccc2)c2cc(Cl)ccc21 [CLOBAZAM]			> 10	> 10	> 10	
CCCCOc1cc(C(=O)NCCN(CC)CC)c2ccccc2n1 [DIBUCAINE]	> 30	> 30	> 10	> 10	> 10	
C#CC1(OC(N)=O)CCCCC1 [ETHINAMATE]			> 10	> 10	> 10	> 10
CCC1(C2=CCCCCC2)C(=O)NC(=O)NC1=O [HEPTABARBITAL]	> 30		> 10	> 10	> 10	> 10
O=C(CCCCC(=O)Nc1c(I)cc(I)c(C(=O)O)c1I)Nc1c(I)cc(I)c(C(=O)O)c1I [IODIPAMIDE]			> 10	> 10	> 10	

SMILES	AC50 [1] [µM]	AC50 [2] [µM]	AC50 [3] [µM]	AC50 (Progesterone receptor) [µM]	AC50 [4] [µM]	AC50 (Histamine H3 receptor) [µM]
CC(C)[N+](C)(CCC(C(N)=O)(c1ccccc1)c1ccccc1)C(C)C [ISOPROPAMIDE]			> 10	> 10	> 10	
COC(=O)C1=C(C)NC(C)=C(C(=O)OC(C)C)C1c1cccc2nonc12 (centres undefined) [ISRADIPINE]	> 30	34.1	> 10	> 30	> 30	
CN1CC[C@]23CCCC[C@H]2[C@H]1Cc1ccc(O)cc13 [LEVORPHANOL]			> 10	> 10	> 10	
CC/C=C\C/C=C\C/C=C\CCCCCCCC(=O)O [LINOLENIC ACID]	> 30	> 30	> 30		6.3	> 30
C#C[C@]1(O)CC[C@H]2[C@@H]3CCC4=CCCC[C@@H]4[C@H]3CC[C@@]21C [LYNESTRENOL]	> 30	> 30	> 30		> 30	> 30
CC1=CC(=O)c2ccccc2C1=O [MENADIONE]			> 10	> 30	> 10	
Cc1cc(-c2ccccc2)nnc1NCCN1CCOCC1 [MINAPRINE]	> 30	> 30	> 30		> 30	> 10
CN1CCCN=C1COC(=O)C(O)(c1ccccc1)C1CCCCC1 (centres undefined) [OXYPHENCYCLIMINE]			> 10	> 10	> 10	
CN1CCC2=C(C1)C(c1ccccc1)c1ccccc12 (centres undefined) [PHENINDAMINE]			> 10	> 30	0.771	
CN1C(=O)CC(c2ccccc2)C1=O (centres undefined) [PHENSUXIMIDE]			> 10	> 10	> 10	> 10
O=C(O)CCCc1ccccc1 [PHENYLBUTANOIC ACID]	> 30	> 10	> 30		> 30	> 10
CC(Cc1ccccc1)NCCC(c1ccccc1)c1ccccc1 (centres undefined) [PRENYLAMINE]	> 30	> 30	> 30		> 30	> 10
C#CCN[C@@H]1CCc2ccccc21 [RASAGILINE]		> 30	> 30	> 30	> 30	> 30
C1COC(NC(C2CC2)C2CC2)=N1 [RILMENIDINE]	3.4	> 30	> 30		> 30	> 10
CC(=O)NS(=O)(=O)c1ccc(N)cc1 [SULFACETAMIDE]			> 10	> 10	> 10	> 10
COc1ccc(C(=O)N2CCN(c3ccc4c(c3)CCC(=O)N4)CC2)cc1OC [VESNARINONE]	> 30	> 30	> 30		> 30	> 30
